Experimental data as given in paper PMC8587750, “Structural Optimization and Biological Activity of Pyrazole Derivatives: Virtual Computational Analysis, Recovery Assay and 3D Culture Model as Potential Predictive Tools of Effectiveness against Trypanosoma cruzi” (Molecules, 2021).
Entries after “also recorded” stand apart in the source; their conditions may differ. Read-outs that look alike come from different tables or passages of the source.

Columns and labels:
[1] = system: trypomastigote forms of T. cruzi; design: method as in PMID 31434040; conditions: read-out: IC50 against trypomastigotes; cited from earlier work
[2] = system: intracellular amastigotes of T. cruzi; assay: Activity against intracellular amastigotes in infected Vero cells (Dm28c-Luc, 72 h); assay type: cell-based, Trypanosoma cruzi; conditions: for IC90: read-out: Trypanocidal Activity Intracellular Amastigotes IC90
Source text: (§1) T. cruzi Dm28c clone genetically modified to express luciferase, kindly provided by Dr. Cristina Henriques from Oswaldo Cruz Institute–Fiocruz, was used in the drug assays. Trypomastigotes were harvested from T. cruzi-infected Vero cultures supernatants at 4th days post-infection (dpi) and used in the phenotypic screening assay. For intracellular amastigotes assays, Vero cells (2D and 3D cultures) were infected at a ratio of 10:1 parasites/host cells.
The effect of the pyrazole derivatives against intracellular amastigotes was also evaluated after 72 h treatment (37 °C) with compound concentrations ranging from 0.04–100 µM [13]. Parasite viability, measured by luminescent signal, was determined after luciferin (300 µg/mL) addition. IC50 and IC90 values were calculated by linear regression. Selectivity index (SI) was calculated as the ratio of the CC50 to IC50 values. The non-toxic concentration of DMSO (less than 1% v/v) was used in all assays. A minimum of three independent assays was carried out in duplicate.

[3] = system: trypomastigote forms of T. cruzi; assay: Phenotypic screening against T. cruzi trypomastigotes (Dm28c-Luc, luciferase viability, 24 h); assay type: cell-based, Trypanosoma cruzi; conditions: for Trypomastigotes SI: CC50 of Vero cells/IC50 of trypomastigote; for IC50 / IC90: Trypanosoma cruzi, Dm28c-Luc, 24 h; for IC50: read-out: Trypanocidal Activity Trypomastigotes IC50; for IC90: read-out: Trypanocidal Activity Trypomastigotes IC90
Source text: as §1
The phenotypic compound screening was performed using transgenic T. cruzi parasites expressing the firefly luciferase (Dm28c-Luc). Trypomastigotes (1 × 10^6 parasites/well) were treated for 24 h at 37 °C with the pyrazole derivatives and Bz (0.04–100 μM), followed by incubation with luciferin substrate (300 µg/mL) to determine parasite viability through luciferase activity. The concentration that reduces the number of viable parasites by 50% (IC50) or 90% (IC90) was calculated by linear regression. The luminescent signal was read on a Glomax-Multi Detection plate reader (Promega Corporation, Madison, WI, EUA)). At least three independent assays were performed in duplicate.

[4] = Cytotoxicity in vitro assay (ATP, CellTiter Glo, 72 h); assay type: cell-based; conditions: African green monkey, Vero cells
Procedure: Vero cells, obtained from the Rio de Janeiro Cell Bank (BCRJ code 0245), were cultured in RPMI-1640 supplemented with 10% fetal bovine serum (FBS) and 1 mM L-glutamine, as previously described. Vero cells were used for drug screening assays and to obtain trypomastigote forms of T. cruzi.
Vero cells were used as a cellular model to analyze the toxic effect of pyrazole derivatives, series 1(a–l), 2(a–l), 3(a–n), 4(a–c), and 5(a–c), and Benznidazole (Bz) on mammalian cells. Briefly, the cells, plated on 96-well white opaque microplate (1.5 × 10^4 cells/well), were treated for 72 h at 37 °C with a wide range concentration (500–1.95 µM) of the pyrazole derivatives. The cell viability was determined by measuring ATP levels using the CellTiter Glo Kit (Promega Corporation, Madison, WI, EUA) followed by reading the luminescent signal on the Glomax-Multi Detection plate reader (Promega Corporation, Madison, WI, EUA)). All treatments and controls were performed at a low concentration of DMSO (≤1%). The 50% cytotoxic concentration values (CC50; the concentration of the compound that reduces 50% of the cell viability) were estimated by linear regression analysis. Three independent assays were performed in duplicate.

[5] = system: intracellular parasites in T. cruzi-infected microtissue; assay: 3D-microtissue-based phenotypic screening (T. cruzi-infected Vero spheroids); assay type: cell-based, Trypanosoma cruzi; conditions: 72 h treatment; for viability of intracellular parasites in microtissue, luminescence intensity (ALU): Bz 100 µM
Procedure: Vero cells were seeded at a density of 2 × 10^5 cells/well in a 96-well U-bottom plate previously coated with agarose (1%). The 3D cultures, adapted from, were cultivated for 4 days in RPMI 1640 medium supplemented with 10% FBS and L-glutamine for complete 3D microtissue formation. The 3D culture model was used as a tool to evaluate the effectiveness of promising derivatives in eliminating intracellular parasites in the microtissue.
The 3D-microtissue-based phenotypic screening was performed with the promising pyrazole derivatives. […] At the end of the treatment, the 3D cultures supernatants were removed, and luciferin (300 μg/mL) was added to the spheroids. The luminescent signal was read on the Glomax-Multi Detection reader (Promega Corporation, Madison, WI, USA). Bz (100 µM) and DMSO (≤1%) were used as positive and negative control, respectively. The IC50 value was calculated by linear regression. At least three independent assays were performed in quadruplicate.

[6] = system: T. cruzi (Dm28c-Luc) in Vero cells; assay: Reversibility (washout) assay, parasite recrudescence in infected Vero cells; assay type: cell-based, Trypanosoma cruzi; conditions: for decrease of parasite load compared to untreated infected Vero cell cultures: 72 h treatment at IC90, washout, 72 h without drug
Procedure: To address the question of whether the treatment with 3g, 3j, and 3m leads to parasite clearance, an intracellular T. cruzi washout assay was performed as a strategy for monitoring the parasite recrudescence. In this approach, cultures of infected Vero cells (Dm28c-Luc) were treated for 72 h at IC90 and 50 µM (2 to 5-fold de IC90) concentrations of the promising compounds 3g, 3j, and 3m and, after washing the cell monolayers, the cultures were kept for another 72 h without drug treatment. Both cell monolayers and their supernatants were evaluated for the presence of viable parasites after luciferin addition. All derivatives analyzed relapsed at the IC90 concentration (Figure 3). However, treatment with 3g, 3j, and 3m led to a significant reduction in the parasite load, reaching a decrease of 4.5-, 1.9-, and 8.7-fold, respectively, when compared to untreated infected Vero cells cultures (Figure 3). The emergence of trypomastigotes in the supernatant, at IC90 concentration, was observed three days after removal of drug pressure, but with a significant reduction in viable parasites compared to untreated cultures (Figure 3). Parasite recrudescence was not seen in 100 µM Bz treatment (Figure 3).
The washout assay, adapted from, was performed to evaluate the promising compounds efficacy. […] After successive washing, the cultures were maintained for an additional 72 h at 37 °C in RPMI 1640 medium supplemented with 10% SFB in the absence of the compound. Luciferin (300 µg/mL) was added separately to the culture supernatant, previously removed, and the cell monolayer. The luminescent signal was read on the Glomax-Multi Detection reader (Promega Corporation, Madison, WI, USA). Bz (100 µM) and DMSO (≤1%) were used as positive and negative reaction controls, respectively.

[7] = system: T. cruzi cysteine protease; assay: Cysteine protease activity of trypomastigote total protein extracts (Z-FR-AMC); assay type: biochemical, Trypanosoma cruzi; conditions: 300 µM, Z-FR-AMC 60 µM, pH 5.0, 37 °C
Procedure: Total protein extract from trypomastigotes (Dm28c-Luc; 10^8 parasites/mL) were extracted with lysis buffer. Cysteine protease activity of extracts (5 μg) was measured in acetate buffer using fluorogenic peptide substrate (60 μM of 7-Amino-4-Methylcoumarin hydrochloride, CBZ-L-Phenylalanyl-L-Arginine amide (Z-FR-AMC). Total protein extracts were incubated for 45 min at room temperature with the compounds and changes in relative fluorescence units monitored using a SpectraMaxM2e spectrophotometer (Molecular Devices, Sunnyvale, CA, USA) for 1 h with excitation at 370 nm and emission at 460 nm. The inhibition assays were performed by coincubation with different compounds (3g, 3j, and 3m) and concentrations (300–11.11 µM) and transepoxysuccinyl-L-leucylamido-(4-guanidino) butane (E-64). Additional control was carried out with DMSO (≤1%). Enzymatic activity was expressed in µmol/min/mg of protein and the residual activity in percentage.
Figure 6 Inhibition of T. cruzi cysteine protease activity. Total protein extracts of trypomastigotes (5 µg), was incubated at different concentrations (300–11.11 µM) of compounds E64 (black circle), 3g (black triangle), 3j (black square) and 3m (white circle) in enzyme activation buffer pH 5.0, at 37 °C. Enzyme activity was measured using a specific fluorogenic peptide substrate Z-FR-AMC (60 µM). Results are presented as percentage of inhibition of enzyme activity (%) and represent the mean and standard deviation (±) of three independent experiments.

[8] = system: T. cruzi-infected cardiac microtissue; design: method as in PMID 32564978; conditions: 5 nM; cited from earlier work
[9] = Trypanosoma cruzi, Vero, negative log of the IC50 value in molar, read-out: Intracellular Amastigotes pIC50 (converted)
[10] = Trypanosoma cruzi, Vero cells infected with Dm28c-Luc, 72 h

| Molecule | IC50 [1] | IC50 ([2]; Trypanosoma cruzi, Vero, 72 h, Vero cells infected with Dm28c-Luc, 72 h, read-out: Trypanocidal Activity Intracellular Amastigotes IC50) | IC50 [2, 9] | IC90 [2, 10] | IC50 ([2]; Vero cells infected with Dm28c-Luc, 72 h, read-out: Trypanocidal Activity Intracellular Amastigotes IC50) | Trypomastigotes SI [3] | IC50 [3] | IC90 [3] | CC50 at 72 h [4] | viability of intracellular parasites in microtissue, luminescence intensity (ALU) [5] | decrease of parasite load compared to untreated infected Vero cell cultures [6] | maximum inhibition of cysteine protease enzymatic activity [7] | fold increase of activity against intracellular amastigotes versus hit compound ([2]; compared to hit compound) | trypanocidal activity fold higher than 3e ([2]; intracellular amastigotes) | reduction of microtissue infection [5] | parasite recrudescence / efficacy ([6]; 50 µM (2 times IC90), 72 h after washout) | reduction of parasite load [8] |
| --- | --- | --- | --- | --- | --- | --- | --- | --- | --- | --- | --- | --- | --- | --- | --- | --- | --- |
| 5-amino-1-aryl-4-(4,5-dihydro-1H-imidazol-2-yl)-1H-pyrazole [hit compound] | 9.5 ± 1.2 µM |  |  |  |  |  |  |  |  |  |  |  |  |  |  |  |  |
| Clc1ccc(-n2cc(C3=NCCN3)cn2)cc1 [Compound 3g, 1-(4-chlorophenyl)-4-(4,5-dihydro-1H-imidazol-2-yl)-1H-pyrazole] |  | < 10 µM | 6.03 µM | 26.1 ± 14.3 µM | 6.09 ± 0.52 µM | 4.27 | 64.6 ± 1.56 µM | > 100 µM | 277 ± 15.8 µM | 36,130 ± 5764 ALU | 4.5 fold | 26% |  |  |  |  |  |
| Brc1ccc(-n2cc(C3=NCCN3)cn2)cc1 [Compound 3j, 1-(4-bromophenyl)-4-(4,5-dihydro-1H-imidazol-2-yl)-1H-pyrazole] |  |  | 2.75 µM | 9.67 ± 0.3 µM |  | 5.36 | 57.7 ± 3.14 µM | 95.3 ± 5.43 µM | 309 ± 34.3 µM | 39,001 ± 9952 ALU | 1.9 fold | 26% |  |  |  |  |  |
| Cc1ccc(-n2cc(C3=NCCN3)cn2)cc1Cl [Compound 3m, 1-(3-chloro-4-methylphenyl)-4-(4,5-dihydro-1H-imidazol-2-yl)-1H-pyrazole] |  |  | 3.55 µM | 21.4 ± 1.25 µM |  | 4.64 | 34.5 ± 8.32 µM | > 100 µM | 161 ± 16.1 µM | 12,683 ± 3976 ALU | 8.7 fold | 26% | 3.8 fold | 21 fold | 93% | without parasitism recrudescence; also recorded: same activity profile as 100 µM Bz |  |
| CC[C@@H]([C@H](C)O)n1ncn(-c2ccc(N3CCN(c4ccc(OC[C@@H]5CO[C@@](Cn6cncn6)(c6ccc(F)cc6F)C5)cc4)CC3)cc2)c1=O [Posaconazole, posaconazole] |  |  |  |  |  |  |  |  |  |  |  |  |  |  |  |  | 50% |
